Test results from patent publication US11713338B2, “Cyclic peptides multimers targeting α-4-β-7 integrin” (priority 2016, dated 2023).

target: T1, integrin α4β7 on α4β7+ memory T helper cells (Homo sapiens, UniProt P13612+P26010); assay: MAdCAM-1 competition / receptor occupancy assay in human whole blood, α4β7-positive Th memory cells; assay type: cell-based; conditions: human whole blood, 1000 nM; read-out: receptor occupancy at maximum concentration
T1 construct: endogenous in cells
T1 sequence (P13612 34-1032): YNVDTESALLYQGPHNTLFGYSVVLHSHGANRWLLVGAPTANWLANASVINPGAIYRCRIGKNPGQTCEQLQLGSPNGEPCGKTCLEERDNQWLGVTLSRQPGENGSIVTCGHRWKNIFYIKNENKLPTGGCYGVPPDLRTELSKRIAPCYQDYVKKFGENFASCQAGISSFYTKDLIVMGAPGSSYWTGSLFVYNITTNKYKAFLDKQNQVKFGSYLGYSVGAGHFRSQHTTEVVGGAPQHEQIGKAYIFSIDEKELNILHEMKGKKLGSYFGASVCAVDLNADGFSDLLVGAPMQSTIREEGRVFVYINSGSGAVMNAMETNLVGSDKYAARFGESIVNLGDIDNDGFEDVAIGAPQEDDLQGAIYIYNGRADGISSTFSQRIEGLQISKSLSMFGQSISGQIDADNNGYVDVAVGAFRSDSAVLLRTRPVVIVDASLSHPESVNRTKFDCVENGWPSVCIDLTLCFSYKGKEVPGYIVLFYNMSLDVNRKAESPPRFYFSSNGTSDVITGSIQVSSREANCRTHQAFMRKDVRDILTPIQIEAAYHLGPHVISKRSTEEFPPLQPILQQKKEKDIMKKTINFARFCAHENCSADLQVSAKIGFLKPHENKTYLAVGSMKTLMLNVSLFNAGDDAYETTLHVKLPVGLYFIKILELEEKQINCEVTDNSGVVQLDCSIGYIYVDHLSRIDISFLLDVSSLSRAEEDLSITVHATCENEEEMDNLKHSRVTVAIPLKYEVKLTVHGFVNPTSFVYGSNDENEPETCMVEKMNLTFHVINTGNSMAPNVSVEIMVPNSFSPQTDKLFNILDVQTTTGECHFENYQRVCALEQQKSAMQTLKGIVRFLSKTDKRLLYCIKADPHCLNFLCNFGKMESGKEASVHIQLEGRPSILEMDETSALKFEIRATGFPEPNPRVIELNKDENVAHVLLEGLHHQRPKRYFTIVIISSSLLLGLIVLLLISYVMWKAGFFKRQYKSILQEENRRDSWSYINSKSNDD
T1 sequence (P26010 20-798): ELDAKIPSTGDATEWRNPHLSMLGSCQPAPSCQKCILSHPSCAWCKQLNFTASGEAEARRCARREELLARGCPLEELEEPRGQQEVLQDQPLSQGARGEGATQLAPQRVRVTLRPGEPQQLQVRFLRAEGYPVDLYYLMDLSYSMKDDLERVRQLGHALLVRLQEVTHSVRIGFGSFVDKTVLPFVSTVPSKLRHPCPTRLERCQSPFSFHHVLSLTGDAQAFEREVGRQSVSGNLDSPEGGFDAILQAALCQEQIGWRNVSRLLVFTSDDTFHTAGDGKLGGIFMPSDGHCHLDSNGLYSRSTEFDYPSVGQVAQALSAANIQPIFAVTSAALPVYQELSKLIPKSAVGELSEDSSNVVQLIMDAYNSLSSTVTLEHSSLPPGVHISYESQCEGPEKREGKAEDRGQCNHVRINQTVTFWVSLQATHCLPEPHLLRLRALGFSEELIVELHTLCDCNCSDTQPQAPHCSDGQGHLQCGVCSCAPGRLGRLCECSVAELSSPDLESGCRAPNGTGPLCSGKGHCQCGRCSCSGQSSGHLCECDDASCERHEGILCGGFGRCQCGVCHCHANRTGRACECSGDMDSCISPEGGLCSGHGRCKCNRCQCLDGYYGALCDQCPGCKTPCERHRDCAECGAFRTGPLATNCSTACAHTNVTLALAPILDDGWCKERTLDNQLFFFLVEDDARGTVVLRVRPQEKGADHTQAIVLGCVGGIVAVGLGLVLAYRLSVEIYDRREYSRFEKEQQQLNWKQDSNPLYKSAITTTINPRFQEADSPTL
Method: Analyte Competition Assay in CD4+ Integrin α4+β7-Lo Memory T Cells
Receptor occupancy in primary cells was determined by measuring the amount of biotinylated human recombinant MAdCAM-1-FC or human recombinant VCAM-1-Fc bound to selected cell populations using flow cytometry. Human recombinant MAdCAM-1-FC or human recombinant VCAM-1-FC (R&D systems) were biotinylated using commercially available reagents and protocol (Pierce).
Whole blood was collected from human donors in sodium heparin tubes. […] Cells were washed twice with 1 mL of 1X DPBS calcium magnesium free (CMF) (ThermoFisher Scientific) and resuspended in 100 microL of DPBS CMF.
Biotinylated human recombinant MAdCAM-1-Fc or VCAM-1-Fc were added at saturating concentration and incubated at room temperature for 1 hour. […] Cells were washed with 1 mL stain buffer-FBS (BD Biosciences) and resuspended in 100 μl stain Buffer-FBS (BD Biosciences) containing 4 mM MnCl2. […] Cells were then washed with 1 mL stain buffer-FBS and resuspended in […] stain buffer-FBS. The cells were incubated in the dark for 30 minutes at room temperature with 1 ul Streptavidin APC (Biolegend 0.2 mg/ml) and a panel of antibodies for the detection of memory T helper a4b7-positive cells subset. And amount of 5.0 ul each of the following antibodies were used; CD45 FITC (BioLegend 200 ug/ml), CD29 APC Cy7 (BioLegend 100 ug/ml), Integrin beta7 PE, (BioLegend concentration 50 μg/mL), CD49d V421 (BioLegend 50 μg/mL), CD3 V510 (BioLegend 30 μg/mL), CD4 PECy7 (BioLegend 100 μg/mL), CD45RO PerCP, BioLegend 200 μg/mL). The cells were then washed with stain-buffer-FBS and resuspended in 150 microL stain buffer-FBS for acquisition on the flow cytometer (BD FACSCanto™ flow cytometer and BDFACSDiva™ software). FACS data was acquire by electronic gating on the basis of forward versus side scatter, The cytometer was set to collect 20,000 events in each tube. Cell population were determined using the following markers, CD45+, CD3+, CD4+, CD45RO+, CD49d+, integrin b7, biotinylated ligands.
Compound receptor occupancy was defined as the decrease in the number of integrin β7+ or integrin β7-lo cells binding biotinylated rhMAdCAM-1 or rhVCAM-1, respectively.
Receptor occupancy was calculated with the following equation: 100−((% ligand-positive cells with compound/% ligand-positive cells DMSO)*100) In Vivo T Lymphocyte Trafficking Analysis in Mouse Model of Colitis

Compound `CC(C)C[C@@H]1NC(=O)C[C@H](CCCCN)N(C)C(=O)[C@H](CCCCN)NC(=O)[C@@H]2CCCN2[C@H](C(=O)NC(C)(C)C)[C@H](C)NC(=O)[C@H]([C@@H](C)O)NC(=O)[C@H](CC(=O)O)NC1=O` [Compound 456] has a receptor occupancy at 1 µM of 15%.

same assay, conditions: human whole blood, FIG. 7; read-out: EC50, competition with saturating amount of MAdCAM

`CC(C)C[C@@H]1NC(=O)c2ccc(-c3ccc(N4CCN(C(=O)COCC(=O)N5CCN(c6ccc(-c7ccc8cc7CNC(=O)[C@@H]7CCCN7[C@H](C(=O)NC(C)(C)C)[C@H](C)NC(=O)[C@H]([C@@H](C)O)NC(=O)[C@H](CC(=O)O)NC(=O)[C@H](CC(C)C)NC8=O)cc6)CC5)CC4)cc3)c(c2)CNC(=O)[C@@H]2CCCN2[C@H](C(=O)NC(C)(C)C)[C@H](C)NC(=O)[C@H]([C@@H](C)O)NC(=O)[C@H](CC(=O)O)NC1=O` [Compound 390] showed an EC50 of 90 nM.

same assay, conditions: human whole blood, inhibition of MAdCAM-1 binding to α4β7-positive Th memory cells, FACS; read-out: MADCAM FACS a4b7 Th mem

For `CC(C)C[C@@H]1NC(=O)C[C@H](CCCCN)N(C)C(=O)[C@H](CCCCN)NC(=O)[C@@H]2CCCN2[C@H](C(=O)NC(C)(C)C)[C@H](C)NC(=O)[C@H]([C@@H](C)O)NC(=O)[C@H](CC(=O)O)NC1=O` [Compound 456], the IC50 was 1000 nM.

same assay, conditions: human whole blood, inhibition of MAdCAM-1 binding to α4β7-positive Th memory cells, FACS; read-out: MADCAM FACS α4β7 Th mem

In order of rising IC50:
1. CC(C)C[C@@H]1NC(=O)c2ccc(-c3ccc(N4CCN(C(=O)[C@H]5CCC[C@H]5C(=O)N5CCN(c6ccc(-c7ccc8cc7CNC(=O)[C@@H]7CCCN7[C@H](C(=O)NC(C)(C)C)[C@H](C)NC(=O)[C@H]([C@@H](C)O)NC(=O)[C@H](CC(=O)O)NC(=O)[C@H](CC(C)C)NC8=O)cc6)CC5)CC4)cc3)c(c2)CNC(=O)[C@@H]2CCCN2[C@H](C(=O)NC(C)(C)C)[C@H](C)NC(=O)[C@H]([C@@H](C)O)NC(=O)[C@H](CC(=O)O)NC1=O [Compound 458]  66 nM
2. CC(C)C[C@@H]1NC(=O)c2ccc(-c3ccc(N4CCN(C(=O)c5ccc(-c6ccc(C(=O)N7CCN(c8ccc(-c9ccc%10cc9CNC(=O)[C@@H]9CCCN9[C@H](C(=O)NC(C)(C)C)[C@H](C)NC(=O)[C@H]([C@@H](C)O)NC(=O)[C@H](CC(=O)O)NC(=O)[C@H](CC(C)C)NC%10=O)cc8)CC7)cc6)cc5)CC4)cc3)c(c2)CNC(=O)[C@@H]2CCCN2[C@H](C(=O)NC(C)(C)C)[C@H](C)NC(=O)[C@H]([C@@H](C)O)NC(=O)[C@H](CC(=O)O)NC1=O [Compound 474]  74 nM
3. CC(C)C[C@@H]1NC(=O)c2ccc(-c3ccc(N4CCN(C(=O)c5cc(F)ccc5-c5ccc(F)cc5C(=O)N5CCN(c6ccc(-c7ccc8cc7CNC(=O)[C@@H]7CCCN7[C@H](C(=O)NC(C)(C)C)[C@H](C)NC(=O)[C@H]([C@@H](C)O)NC(=O)[C@H](CC(=O)O)NC(=O)[C@H](CC(C)C)NC8=O)cc6)CC5)CC4)cc3)c(c2)CNC(=O)[C@@H]2CCCN2[C@H](C(=O)NC(C)(C)C)[C@H](C)NC(=O)[C@H]([C@@H](C)O)NC(=O)[C@H](CC(=O)O)NC1=O [Compound 475]  74 nM
4. CC(C)C[C@@H]1NC(=O)c2ccc(-c3ccc(N4CCN(C(=O)c5ccc(C(=O)N6CCN(c7ccc(-c8ccc9cc8CNC(=O)[C@@H]8CCCN8[C@H](C(=O)NC(C)(C)C)[C@H](C)NC(=O)[C@H]([C@@H](C)O)NC(=O)[C@H](CC(=O)O)NC(=O)[C@H](CC(C)C)NC9=O)cc7)CC6)s5)CC4)cc3)c(c2)CNC(=O)[C@@H]2CCCN2[C@H](C(=O)NC(C)(C)C)[C@H](C)NC(=O)[C@H]([C@@H](C)O)NC(=O)[C@H](CC(=O)O)NC1=O [Compound 470]  81 nM
5. CC(C)C[C@@H]1NC(=O)c2ccc(-c3ccc(N4CCN(C(=O)COCC(=O)N5CCN(c6ccc(-c7ccc8cc7CNC(=O)[C@@H]7CCCN7[C@H](C(=O)NC(C)(C)C)[C@H](C)NC(=O)[C@H]([C@@H](C)O)NC(=O)[C@H](CC(=O)O)NC(=O)[C@H](CC(C)C)NC8=O)cc6)CC5)CC4)cc3)c(c2)CNC(=O)[C@@H]2CCCN2[C@H](C(=O)NC(C)(C)C)[C@H](C)NC(=O)[C@H]([C@@H](C)O)NC(=O)[C@H](CC(=O)O)NC1=O [Compound 390]  90 nM
6. CC(C)C[C@@H]1NC(=O)c2ccc(-c3ccc(N4CCN(C(=O)C5(C(=O)N6CCN(c7ccc(-c8ccc9cc8CNC(=O)[C@@H]8CCCN8[C@H](C(=O)NC(C)(C)C)[C@H](C)NC(=O)[C@H]([C@@H](C)O)NC(=O)[C@H](CC(=O)O)NC(=O)[C@H](CC(C)C)NC9=O)cc7)CC6)Cc6ccccc6C5)CC4)cc3)c(c2)CNC(=O)[C@@H]2CCCN2[C@H](C(=O)NC(C)(C)C)[C@H](C)NC(=O)[C@H]([C@@H](C)O)NC(=O)[C@H](CC(=O)O)NC1=O [Compound 461]  93 nM
7. CC(C)C[C@@H]1NC(=O)c2ccc(-c3ccc(N4CCN(C(=O)C56CC7CC(C5)CC(C(=O)N5CCN(c8ccc(-c9ccc%10cc9CNC(=O)[C@@H]9CCCN9[C@H](C(=O)NC(C)(C)C)[C@H](C)NC(=O)[C@H]([C@@H](C)O)NC(=O)[C@H](CC(=O)O)NC(=O)[C@H](CC(C)C)NC%10=O)cc8)CC5)(C7)C6)CC4)cc3)c(c2)CNC(=O)[C@@H]2CCCN2[C@H](C(=O)NC(C)(C)C)[C@H](C)NC(=O)[C@H]([C@@H](C)O)NC(=O)[C@H](CC(=O)O)NC1=O [Compound 460]  107 nM
8. CC(C)C[C@@H]1NC(=O)c2ccc(-c3ccc(N4CCN(C(=O)c5ccc(-c6cccc(C(=O)N7CCN(c8ccc(-c9ccc%10cc9CNC(=O)[C@@H]9CCCN9[C@H](C(=O)NC(C)(C)C)[C@H](C)NC(=O)[C@H]([C@@H](C)O)NC(=O)[C@H](CC(=O)O)NC(=O)[C@H](CC(C)C)NC%10=O)cc8)CC7)n6)nc5)CC4)cc3)c(c2)CNC(=O)[C@@H]2CCCN2[C@H](C(=O)NC(C)(C)C)[C@H](C)NC(=O)[C@H]([C@@H](C)O)NC(=O)[C@H](CC(=O)O)NC1=O [Compound 466]  164 nM
9. COc1cc(C(=O)N2CCN(c3ccc(-c4ccc5cc4CNC(=O)[C@@H]4CCCN4[C@H](C(=O)NC(C)(C)C)[C@H](C)NC(=O)[C@H]([C@@H](C)O)NC(=O)[C@H](CC(=O)O)NC(=O)[C@H](CC(C)C)NC5=O)cc3)CC2)cc(-c2ccc(C(=O)N3CCN(c4ccc(-c5ccc6cc5CNC(=O)[C@@H]5CCCN5[C@H](C(=O)NC(C)(C)C)[C@H](C)NC(=O)[C@H]([C@@H](C)O)NC(=O)[C@H](CC(=O)O)NC(=O)[C@H](CC(C)C)NC6=O)cc4)CC3)cc2F)c1 [Compound 464]  232 nM
